Legend:
p300 = target: T1, p300 (Homo sapiens, UniProt Q09472); assay: P300 degradation, HiBit technology in A549 P300 HiBit cells (2 h); format: cell-based; conditions: 2 hrs post treatment; for Dmax: A549, A549 P300 HiBit cells; for DC50: A549 P300 HiBit cells
T1 construct: host or cells: A549 P300 HiBit cells
How it was run: (§1)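 HiBiT knock-in A549 cells received compound in serial dilution at 37 °C under 5% CO2. Remaining tagged protein was quantified by lytic HiBiT luminescence after 10 min shaking at room temperature, yielding potency and maximal degradation.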

CBP = target: T2, CBP (Homo sapiens, UniProt Q92793); assay: CBP degradation, HiBit technology in A549 CBP HiBit cells (24 h); format: cell-based; conditions: 24 hrs post treatment
T2 construct: host or cells: A549 CBP HiBit cells
How it was run: as §1

T2 sequence (Q92793 whole entry): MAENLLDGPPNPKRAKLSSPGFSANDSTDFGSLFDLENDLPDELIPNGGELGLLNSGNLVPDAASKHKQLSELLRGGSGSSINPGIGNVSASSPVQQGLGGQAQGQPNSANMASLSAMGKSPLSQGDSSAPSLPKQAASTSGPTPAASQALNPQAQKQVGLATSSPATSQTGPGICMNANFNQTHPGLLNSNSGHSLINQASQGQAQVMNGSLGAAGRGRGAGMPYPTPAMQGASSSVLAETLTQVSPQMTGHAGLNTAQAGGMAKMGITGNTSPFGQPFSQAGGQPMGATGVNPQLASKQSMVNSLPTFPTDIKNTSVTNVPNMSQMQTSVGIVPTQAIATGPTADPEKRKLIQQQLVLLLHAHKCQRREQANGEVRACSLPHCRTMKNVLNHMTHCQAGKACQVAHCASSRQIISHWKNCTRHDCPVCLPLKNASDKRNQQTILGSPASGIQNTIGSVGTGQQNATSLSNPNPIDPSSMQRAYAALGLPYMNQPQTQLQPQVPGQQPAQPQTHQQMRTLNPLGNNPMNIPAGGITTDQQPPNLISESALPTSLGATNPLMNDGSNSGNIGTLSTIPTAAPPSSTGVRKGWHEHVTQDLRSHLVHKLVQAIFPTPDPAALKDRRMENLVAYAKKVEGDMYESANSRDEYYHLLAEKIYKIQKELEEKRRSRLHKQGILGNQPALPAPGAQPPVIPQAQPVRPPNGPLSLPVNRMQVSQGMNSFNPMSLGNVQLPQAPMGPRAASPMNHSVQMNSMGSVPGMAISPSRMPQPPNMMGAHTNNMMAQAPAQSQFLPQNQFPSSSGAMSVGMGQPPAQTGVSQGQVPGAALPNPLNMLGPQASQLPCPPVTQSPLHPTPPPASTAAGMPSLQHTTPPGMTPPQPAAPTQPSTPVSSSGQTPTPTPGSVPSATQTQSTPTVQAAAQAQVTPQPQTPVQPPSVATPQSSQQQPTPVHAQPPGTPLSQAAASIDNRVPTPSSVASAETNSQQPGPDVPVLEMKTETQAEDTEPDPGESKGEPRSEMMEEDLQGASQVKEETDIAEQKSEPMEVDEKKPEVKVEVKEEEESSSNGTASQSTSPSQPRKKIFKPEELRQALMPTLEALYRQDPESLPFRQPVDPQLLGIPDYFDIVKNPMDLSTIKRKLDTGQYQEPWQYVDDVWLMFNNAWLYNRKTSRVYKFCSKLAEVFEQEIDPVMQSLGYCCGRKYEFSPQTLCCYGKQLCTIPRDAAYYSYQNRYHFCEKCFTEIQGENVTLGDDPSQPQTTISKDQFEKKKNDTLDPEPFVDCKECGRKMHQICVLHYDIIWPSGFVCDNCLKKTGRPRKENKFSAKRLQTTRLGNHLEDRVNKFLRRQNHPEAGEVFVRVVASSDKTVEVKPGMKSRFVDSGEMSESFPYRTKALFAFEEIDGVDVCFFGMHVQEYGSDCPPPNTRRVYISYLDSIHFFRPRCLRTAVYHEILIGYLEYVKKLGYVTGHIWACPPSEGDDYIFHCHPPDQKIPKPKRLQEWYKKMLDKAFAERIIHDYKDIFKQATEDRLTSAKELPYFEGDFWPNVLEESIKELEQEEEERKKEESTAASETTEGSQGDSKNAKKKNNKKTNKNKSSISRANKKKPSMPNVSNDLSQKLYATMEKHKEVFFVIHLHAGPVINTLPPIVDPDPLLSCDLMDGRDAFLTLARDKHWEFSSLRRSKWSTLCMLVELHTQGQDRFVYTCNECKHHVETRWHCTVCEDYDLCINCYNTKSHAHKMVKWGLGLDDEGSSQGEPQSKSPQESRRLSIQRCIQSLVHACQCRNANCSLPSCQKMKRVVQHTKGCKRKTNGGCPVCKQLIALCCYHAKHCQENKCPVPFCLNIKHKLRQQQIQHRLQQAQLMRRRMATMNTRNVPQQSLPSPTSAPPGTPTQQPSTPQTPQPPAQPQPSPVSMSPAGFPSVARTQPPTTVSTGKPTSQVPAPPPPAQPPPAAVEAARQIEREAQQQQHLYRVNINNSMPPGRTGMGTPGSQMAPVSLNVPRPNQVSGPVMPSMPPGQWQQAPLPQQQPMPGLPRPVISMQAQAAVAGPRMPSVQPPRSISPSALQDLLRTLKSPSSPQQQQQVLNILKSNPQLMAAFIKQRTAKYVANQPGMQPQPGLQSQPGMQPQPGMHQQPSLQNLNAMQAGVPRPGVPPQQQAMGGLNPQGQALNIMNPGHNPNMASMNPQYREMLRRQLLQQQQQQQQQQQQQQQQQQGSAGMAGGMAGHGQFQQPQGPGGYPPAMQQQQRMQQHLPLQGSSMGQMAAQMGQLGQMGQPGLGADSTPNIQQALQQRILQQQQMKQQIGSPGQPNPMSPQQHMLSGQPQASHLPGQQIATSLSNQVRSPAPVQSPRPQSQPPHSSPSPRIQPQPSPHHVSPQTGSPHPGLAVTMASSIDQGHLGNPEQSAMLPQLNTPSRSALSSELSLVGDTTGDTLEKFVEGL
T1 sequence (Q09472 whole entry): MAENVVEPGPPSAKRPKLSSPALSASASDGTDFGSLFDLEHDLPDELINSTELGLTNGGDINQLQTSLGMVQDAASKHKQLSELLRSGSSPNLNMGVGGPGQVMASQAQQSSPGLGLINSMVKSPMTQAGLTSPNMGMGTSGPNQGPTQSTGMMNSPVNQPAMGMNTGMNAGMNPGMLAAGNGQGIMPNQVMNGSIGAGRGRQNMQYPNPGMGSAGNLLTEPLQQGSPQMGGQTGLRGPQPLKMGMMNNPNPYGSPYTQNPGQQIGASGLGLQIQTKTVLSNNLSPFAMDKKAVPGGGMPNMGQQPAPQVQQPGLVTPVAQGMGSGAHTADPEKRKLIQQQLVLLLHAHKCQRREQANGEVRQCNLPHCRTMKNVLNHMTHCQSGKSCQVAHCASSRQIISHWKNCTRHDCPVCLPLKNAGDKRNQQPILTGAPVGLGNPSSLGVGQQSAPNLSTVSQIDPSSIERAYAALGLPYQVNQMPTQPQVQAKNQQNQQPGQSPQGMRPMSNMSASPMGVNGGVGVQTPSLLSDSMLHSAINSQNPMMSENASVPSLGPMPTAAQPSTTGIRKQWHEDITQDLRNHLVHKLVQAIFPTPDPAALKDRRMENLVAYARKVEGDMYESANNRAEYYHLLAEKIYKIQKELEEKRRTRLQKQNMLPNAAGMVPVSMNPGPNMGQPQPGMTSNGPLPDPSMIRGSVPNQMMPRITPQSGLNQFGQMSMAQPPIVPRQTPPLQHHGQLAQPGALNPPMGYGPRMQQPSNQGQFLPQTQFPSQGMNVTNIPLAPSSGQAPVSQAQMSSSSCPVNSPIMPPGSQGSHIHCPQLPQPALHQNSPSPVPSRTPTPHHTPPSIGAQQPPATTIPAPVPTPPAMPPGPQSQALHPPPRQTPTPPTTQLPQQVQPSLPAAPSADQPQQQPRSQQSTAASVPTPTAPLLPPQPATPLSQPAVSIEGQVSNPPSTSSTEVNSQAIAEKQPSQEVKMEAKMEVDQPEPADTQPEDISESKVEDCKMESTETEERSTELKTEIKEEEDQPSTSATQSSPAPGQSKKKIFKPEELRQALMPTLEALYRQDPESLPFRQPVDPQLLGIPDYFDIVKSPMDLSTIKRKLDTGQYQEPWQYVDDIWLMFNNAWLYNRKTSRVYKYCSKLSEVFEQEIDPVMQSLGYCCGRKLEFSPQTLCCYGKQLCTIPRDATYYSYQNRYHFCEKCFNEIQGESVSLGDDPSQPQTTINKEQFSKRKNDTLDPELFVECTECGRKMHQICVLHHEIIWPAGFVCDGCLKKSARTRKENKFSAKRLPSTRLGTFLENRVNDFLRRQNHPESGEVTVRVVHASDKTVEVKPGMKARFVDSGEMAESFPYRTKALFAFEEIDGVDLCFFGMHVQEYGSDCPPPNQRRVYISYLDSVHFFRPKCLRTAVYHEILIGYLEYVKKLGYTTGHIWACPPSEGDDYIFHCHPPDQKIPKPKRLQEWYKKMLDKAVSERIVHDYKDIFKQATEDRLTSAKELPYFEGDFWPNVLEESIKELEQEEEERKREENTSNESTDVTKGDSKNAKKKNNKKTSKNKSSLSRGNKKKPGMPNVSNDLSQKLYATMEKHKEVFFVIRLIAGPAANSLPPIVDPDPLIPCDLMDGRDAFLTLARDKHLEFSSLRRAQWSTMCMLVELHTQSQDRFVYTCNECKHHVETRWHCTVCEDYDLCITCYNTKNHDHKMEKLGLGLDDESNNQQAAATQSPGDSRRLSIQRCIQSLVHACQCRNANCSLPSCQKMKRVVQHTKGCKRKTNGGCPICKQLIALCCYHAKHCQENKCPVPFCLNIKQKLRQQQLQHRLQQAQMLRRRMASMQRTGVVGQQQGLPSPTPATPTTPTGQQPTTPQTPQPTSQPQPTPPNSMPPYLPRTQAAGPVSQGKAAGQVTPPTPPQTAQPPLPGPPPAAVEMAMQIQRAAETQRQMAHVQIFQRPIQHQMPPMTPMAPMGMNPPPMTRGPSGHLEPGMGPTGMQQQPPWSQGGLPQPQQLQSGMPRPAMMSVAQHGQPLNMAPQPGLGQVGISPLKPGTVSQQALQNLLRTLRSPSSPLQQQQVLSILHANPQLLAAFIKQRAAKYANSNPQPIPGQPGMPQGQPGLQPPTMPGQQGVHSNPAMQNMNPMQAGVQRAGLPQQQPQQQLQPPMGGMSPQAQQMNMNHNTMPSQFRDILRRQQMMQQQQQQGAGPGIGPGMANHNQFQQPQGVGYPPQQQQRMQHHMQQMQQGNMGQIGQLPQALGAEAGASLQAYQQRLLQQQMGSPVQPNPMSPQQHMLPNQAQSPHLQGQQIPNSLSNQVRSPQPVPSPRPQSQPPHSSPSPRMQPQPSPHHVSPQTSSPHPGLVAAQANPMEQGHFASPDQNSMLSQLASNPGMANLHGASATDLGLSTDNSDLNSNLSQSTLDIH

Cc1cc2c(N3CCOc4nc(-c5ccc(C(=O)NCC#Cc6cc7c(C8CCC(=O)NC8=O)cccc7o6)nc5)ncc43)cc(C3CCOCC3)nc2n(C)c1=O (centres unmarked) [Example B166, 5-(5-(6,8-dimethyl-7-oxo-2-(tetrahydro-2H-pyran-4-yl)-7,8-dihydro-1,8-naphthyridin-4-yl)-6,7-dihydro-5H-pyrimido[4,5-b][1,4]oxazin-2-yl)-N-(3-(4-(2,6-dioxopiperidin-3-yl)benzofuran-2-yl)prop-2-yn-1-yl) picolinamide]
Dmax (p300): 60 to 79%
DC50 (p300): 1 to 9.9 nM
DC50 (CBP): > 1000 nM
Dmax (CBP): < 20%

Cc1cc(-c2cc3cccc(-c4nc(N5CCOCC5)cc5c4cc(C)c(=O)n5C)c3cn2)cnc1C(=O)NCC#Cc1cc2c(C3CCC(=O)NC3=O)cccc2o1 (centres unmarked) [Example B167, 5-(8-(1,3-dimethyl-7-morpholino-2-oxo-1,2-dihydro-1,6-naphthyridin-5-yl)isoquinolin-3-yl)-N-(3-(4-(2,6-dioxopiperidin-3-yl)benzofuran-2-yl)prop-2-yn-1-yl)-3-methylpicolinamide]
Dmax (p300): > 80%
DC50 (p300): 1 to 9.9 nM
DC50 (CBP): 1 to 9.9 nM
Dmax (CBP): 60 to 79%

Cc1cc2c(N3CCCc4nc(-c5ccc(C(=O)NCC#Cc6cc7c(C8CCC(=O)NC8=O)cccc7o6)nc5)ncc43)nc(N3CC(C)(O)C3)cc2n(C)c1=O (centres unmarked) [Example B168, N-(3-(4-(2,6-dioxopiperidin-3-yl)benzofuran-2-yl)prop-2-yn-1-yl)-5-(5-(7-(3-hydroxy-3-methylazetidin-1-yl)-1,3-dimethyl-2-oxo-1,2-dihydro-1,6-naphthyridin-5-yl)-5,6,7,8-tetrahydropyrido[3,2-d]pyrimidin-2-yl) picolinamide]
Dmax (p300): > 80%
DC50 (p300): < 1 nM
DC50 (CBP): > 1000 nM
Dmax (CBP): < 20%

Cc1cc2c(N3CCCc4cc(-c5ccc(C(=O)NCC#Cc6cc7c(C8CCC(=O)NC8=O)cccc7o6)nc5)ncc43)cc(C3CCOCC3)nc2n(C)c1=O (centres unmarked) [Example B169, 5-(1-(6,8-dimethyl-7-oxo-2-(tetrahydro-2H-pyran-4-yl)-7,8-dihydro-1,8-naphthyridin-4-yl)-1,2,3,4-tetrahydro-1,7-naphthyridin-6-yl)-N-(3-(4-(2,6-dioxopiperidin-3-yl)benzofuran-2-yl)prop-2-yn-1-yl)picolinamide]
Dmax (p300): > 80%
DC50 (p300): < 1 nM
DC50 (CBP): 1 to 9.9 nM
Dmax (CBP): 40 to 59%

CNC(=O)c1c[nH]c2ccc(-c3cccc4cc(-c5ccc(C(=O)NCC#Cc6ccc7occ(C8CCC(=O)NC8=O)c7c6)nc5)ncc34)cc12 (centres unmarked) [Example C1, 5-(3-(6-((3-(3-(2,6-dioxopiperidin-3-yl)benzofuran-5-yl)prop-2-yn-1-yl)carbamoyl)pyridin-3-yl)isoquinolin-8-yl)-N-methyl-1H-indole-3-carboxamide]
Dmax (p300): > 80%
DC50 (p300): 1 to 9.9 nM
DC50 (CBP): > 1000 nM
Dmax (CBP): < 20%

From patent US20250114345A1, “COMPOUNDS AND COMPOSITIONS AS CBP/P300 DEGRADERS AND USES THEREOF” (Oncopia Therapeutics, Inc. d/b/a/ SK Life Science Labs, priority 2023, published 2025)
